Results on 17 compounds are retold here after patent US12435046B2, “Alkynyl quinazoline compounds” (Black Diamond Therapeutics, Inc., priority 2019, dated 2025).

SMILES strings stand for the structures. pIC50: −log10 of the molar value. Bounds are passed on as bounds.

Format in all cases: cell-based
Common to all, as to settings: Table A; BaF3 cells, 3 days

One assay has as its target T1, EGFR wt (Homo sapiens, UniProt P00533).
T1 construct: expressed in transfected cells; host or cells: BaF3 (murine pro-B) cells, retroviral transduction with pMXs-IRES-Blasticidin
Nature of the assay: BaF3 cell proliferation assay (CellTiterGlo), EGFR wt. The method, then: (§1) Retroviral Production: EGFR mutants were subcloned into pMXs-IRES-Blasticidin (RTV-016, Cell Biolabs, San Diego, CA). Retroviral expression vector retrovirus was produced by transient transfection of HEK 293T cells with the retroviral EGFR mutant expression vector pMXs-IRES-Blasticidin (RTV-016, Cell Biolabs), pCMV-Gag-Pol vector and pCMV-VSV-G-Envelope vector. Briefly, HEK 293T/17 cells were plated in 100 mm collagen coated plate (354450, Corning Life Sciences, Tewksbury, MA) (4×10^5 per plate) and incubated overnight. The next day, retroviral plasmids (3 ng of EGFR mutant, 1.0 ng of pCMV-Gag-Pol and 0.5 ng pCMV-VSV-G) were mixed in 500 n1 of Optimem (31985, Life Technologies). The mixture was incubated at room temperature for 5 min and then added to Optimem containing transfection reagent Lipofectamine (11668, Invitrogen) and incubated for 20 minutes. Mixture was then added dropwise to HEK 293T cells. The next day the medium was replaced with fresh culture medium and retrovirus was harvested @ 24 and 48 hrs.
(§2) Generation of EGFR mutant stable cell lines: BaF3 cells (1.5E5 cells) were infected with 1 ml of viral supernatant supplemented with 8 ng/ml polybrene by centrifuging for 30 min at 1000 rpm. Cells were placed in a 37° C. incubator overnight. Cells were then spun for 5 minutes to pellet the cells. Supernatant was removed and cells re-infected a fresh 1 ml of viral supernatant supplemented with 8 ng/ml polybrene by centrifuging for 30 min at 1000 rpm. Cells were placed in 37° C. incubator overnight. Cells were then maintained in RPMI containing 10% Heat Inactivated FBS, 2% L-glutamine containing 10 ng/ml IL-3. After 48 hours cells were selected for retroviral infection in 10 […] for one week. Blasticidin resistant populations were washed twice in phosphate buffered saline before plating in media lacking IL-3 to select for IL-3 independent growth.
(§3) Assay for cell proliferation: BaF3 cell lines were resuspended at 1.3E5 c/ml in RPMI containing 10% Heat Inactivated FBS, 2% L-glutamine and 1% Pen/Strep and dispensed in triplicate (17.5E4 c/well) into 96 well plates. To determine the effect of drug on cell proliferation, cells incubated for 3 days in the presence of vehicle control or test drug at varying concentrations. Inhibition of cell growth was determined by luminescent quantification of intracellular ATP content using CellTiterGlo (Promega), according to the protocol provided by the manufacturer. Comparison of cell number on day 0 versus 72 hours post drug treatment was used to plot dose-response curves. The number of viable cells was determined and normalized to vehicle-treated controls. Inhibition of proliferation, relative to vehicle-treated controls was expressed as a fraction of 1 and graphed using PRISM® software (Graphpad Software, San Diego, CA). EC50 values were determined with the same application.

The target in a further assay is T2, EGFR V3 (Homo sapiens, UniProt P00533, DELINS30-297G).
T2 construct: expressed in transfected cells; host or cells: BaF3 (murine pro-B) cells, retroviral transduction with pMXs-IRES-Blasticidin
T2 sequence (P00533 with tags, fused parts or gaps DELINS30-297G): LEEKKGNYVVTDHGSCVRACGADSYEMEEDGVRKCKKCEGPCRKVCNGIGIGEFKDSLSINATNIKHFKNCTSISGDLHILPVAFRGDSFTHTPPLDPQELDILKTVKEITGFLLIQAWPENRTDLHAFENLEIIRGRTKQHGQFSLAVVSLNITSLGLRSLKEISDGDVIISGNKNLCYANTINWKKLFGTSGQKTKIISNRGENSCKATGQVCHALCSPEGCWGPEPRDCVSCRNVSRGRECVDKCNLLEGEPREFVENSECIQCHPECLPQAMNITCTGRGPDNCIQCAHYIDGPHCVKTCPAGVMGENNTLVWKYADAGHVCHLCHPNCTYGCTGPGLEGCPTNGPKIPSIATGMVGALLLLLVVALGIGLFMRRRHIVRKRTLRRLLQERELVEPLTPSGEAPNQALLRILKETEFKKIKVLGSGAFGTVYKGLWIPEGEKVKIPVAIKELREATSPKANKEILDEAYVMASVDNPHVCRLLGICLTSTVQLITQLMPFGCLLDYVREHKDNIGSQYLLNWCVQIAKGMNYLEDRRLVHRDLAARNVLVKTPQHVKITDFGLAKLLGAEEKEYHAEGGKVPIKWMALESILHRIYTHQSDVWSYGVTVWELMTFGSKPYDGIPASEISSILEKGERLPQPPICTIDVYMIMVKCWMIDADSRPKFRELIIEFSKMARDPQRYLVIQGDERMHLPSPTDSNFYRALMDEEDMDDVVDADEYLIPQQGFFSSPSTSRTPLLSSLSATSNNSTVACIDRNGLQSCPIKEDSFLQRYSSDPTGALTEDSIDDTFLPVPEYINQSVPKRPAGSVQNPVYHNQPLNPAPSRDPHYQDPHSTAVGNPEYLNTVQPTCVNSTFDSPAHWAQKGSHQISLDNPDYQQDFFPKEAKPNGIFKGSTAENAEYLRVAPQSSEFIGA
The assay is described as follows: BaF3 cell proliferation assay (CellTiterGlo), EGFR V3. As to the method: as §1, §2, §3

A further assay concerns the target T3, HER2 S310F (Homo sapiens, UniProt P04626, S310F).
T3 construct: expressed in transfected cells; host or cells: BaF3 (murine pro-B) cells
Nature of the assay: BaF3 cell proliferation assay (CellTiterGlo), HER2 S310F.

The target of a further assay is T4, HER2 YVMA (Homo sapiens, UniProt P04626, INS775YVMA).
T4 construct: expressed in transfected cells; host or cells: BaF3 (murine pro-B) cells
T4 sequence (P04626 with tags, fused parts or gaps INS775YVMA): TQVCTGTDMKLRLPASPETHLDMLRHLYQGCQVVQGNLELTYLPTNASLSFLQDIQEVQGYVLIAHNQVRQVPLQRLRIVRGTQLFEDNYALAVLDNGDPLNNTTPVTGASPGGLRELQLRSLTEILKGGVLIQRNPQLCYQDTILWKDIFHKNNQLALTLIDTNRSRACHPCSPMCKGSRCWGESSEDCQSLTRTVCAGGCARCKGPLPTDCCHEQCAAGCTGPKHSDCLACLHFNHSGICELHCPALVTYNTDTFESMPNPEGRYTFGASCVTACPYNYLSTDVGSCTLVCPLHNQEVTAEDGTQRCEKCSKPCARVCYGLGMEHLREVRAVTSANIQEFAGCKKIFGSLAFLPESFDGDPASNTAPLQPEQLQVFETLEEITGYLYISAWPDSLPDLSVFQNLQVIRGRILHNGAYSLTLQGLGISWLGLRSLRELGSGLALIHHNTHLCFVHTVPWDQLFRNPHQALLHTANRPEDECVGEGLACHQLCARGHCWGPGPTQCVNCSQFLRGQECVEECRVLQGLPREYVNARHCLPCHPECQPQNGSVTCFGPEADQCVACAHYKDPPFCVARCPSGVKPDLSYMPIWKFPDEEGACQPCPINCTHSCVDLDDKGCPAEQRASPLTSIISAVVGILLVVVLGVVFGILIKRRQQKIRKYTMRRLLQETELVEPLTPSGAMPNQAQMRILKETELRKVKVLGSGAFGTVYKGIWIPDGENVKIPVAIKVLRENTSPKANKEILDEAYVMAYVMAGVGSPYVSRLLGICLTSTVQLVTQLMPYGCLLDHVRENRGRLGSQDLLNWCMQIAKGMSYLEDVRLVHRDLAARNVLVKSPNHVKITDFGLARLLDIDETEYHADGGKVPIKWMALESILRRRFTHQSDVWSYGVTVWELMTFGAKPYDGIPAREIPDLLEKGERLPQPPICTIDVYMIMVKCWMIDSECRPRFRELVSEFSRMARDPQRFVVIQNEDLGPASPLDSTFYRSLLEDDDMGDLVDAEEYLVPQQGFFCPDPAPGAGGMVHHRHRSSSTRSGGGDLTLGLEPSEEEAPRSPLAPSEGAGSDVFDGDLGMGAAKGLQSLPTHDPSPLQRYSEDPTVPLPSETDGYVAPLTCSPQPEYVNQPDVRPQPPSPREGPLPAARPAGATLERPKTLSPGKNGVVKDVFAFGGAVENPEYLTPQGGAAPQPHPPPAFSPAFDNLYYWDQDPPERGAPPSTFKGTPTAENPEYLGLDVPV
The assay is described as follows: BaF3 cell proliferation assay (CellTiterGlo), HER2 YVMA.

T3 sequence (P04626 23-1255 S310F): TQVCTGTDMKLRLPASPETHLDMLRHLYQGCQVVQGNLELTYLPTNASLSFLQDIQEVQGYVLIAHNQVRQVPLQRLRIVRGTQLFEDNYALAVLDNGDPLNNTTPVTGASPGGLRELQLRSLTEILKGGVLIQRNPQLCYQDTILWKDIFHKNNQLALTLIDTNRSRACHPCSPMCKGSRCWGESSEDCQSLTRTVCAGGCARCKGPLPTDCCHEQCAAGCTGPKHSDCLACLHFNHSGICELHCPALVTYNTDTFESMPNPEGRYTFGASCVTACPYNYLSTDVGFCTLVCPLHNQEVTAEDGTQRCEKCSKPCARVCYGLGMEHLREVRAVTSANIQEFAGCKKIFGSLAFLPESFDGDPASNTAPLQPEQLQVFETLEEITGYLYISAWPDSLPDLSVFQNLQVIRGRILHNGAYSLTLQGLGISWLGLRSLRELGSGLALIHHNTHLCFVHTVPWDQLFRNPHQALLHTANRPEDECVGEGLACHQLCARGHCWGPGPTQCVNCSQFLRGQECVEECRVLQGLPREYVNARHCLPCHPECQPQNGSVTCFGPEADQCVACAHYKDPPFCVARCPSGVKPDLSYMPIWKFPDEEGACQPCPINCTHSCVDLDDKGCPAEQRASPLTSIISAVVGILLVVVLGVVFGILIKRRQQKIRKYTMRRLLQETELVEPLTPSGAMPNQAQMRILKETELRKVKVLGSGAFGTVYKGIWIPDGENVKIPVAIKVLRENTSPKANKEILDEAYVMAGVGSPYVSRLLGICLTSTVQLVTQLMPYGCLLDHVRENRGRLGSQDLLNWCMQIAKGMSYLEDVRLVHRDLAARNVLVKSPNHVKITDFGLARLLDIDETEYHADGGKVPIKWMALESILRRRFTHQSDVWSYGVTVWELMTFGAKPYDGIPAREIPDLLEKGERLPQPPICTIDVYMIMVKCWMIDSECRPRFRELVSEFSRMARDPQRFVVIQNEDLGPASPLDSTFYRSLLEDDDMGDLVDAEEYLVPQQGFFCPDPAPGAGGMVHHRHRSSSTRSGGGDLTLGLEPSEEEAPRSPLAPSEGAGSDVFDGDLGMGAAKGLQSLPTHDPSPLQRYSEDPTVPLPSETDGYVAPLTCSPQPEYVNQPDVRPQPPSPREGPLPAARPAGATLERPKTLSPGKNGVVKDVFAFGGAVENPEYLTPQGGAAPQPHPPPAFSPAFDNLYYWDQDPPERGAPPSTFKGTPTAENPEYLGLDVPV
T1 sequence (P00533 25-1210): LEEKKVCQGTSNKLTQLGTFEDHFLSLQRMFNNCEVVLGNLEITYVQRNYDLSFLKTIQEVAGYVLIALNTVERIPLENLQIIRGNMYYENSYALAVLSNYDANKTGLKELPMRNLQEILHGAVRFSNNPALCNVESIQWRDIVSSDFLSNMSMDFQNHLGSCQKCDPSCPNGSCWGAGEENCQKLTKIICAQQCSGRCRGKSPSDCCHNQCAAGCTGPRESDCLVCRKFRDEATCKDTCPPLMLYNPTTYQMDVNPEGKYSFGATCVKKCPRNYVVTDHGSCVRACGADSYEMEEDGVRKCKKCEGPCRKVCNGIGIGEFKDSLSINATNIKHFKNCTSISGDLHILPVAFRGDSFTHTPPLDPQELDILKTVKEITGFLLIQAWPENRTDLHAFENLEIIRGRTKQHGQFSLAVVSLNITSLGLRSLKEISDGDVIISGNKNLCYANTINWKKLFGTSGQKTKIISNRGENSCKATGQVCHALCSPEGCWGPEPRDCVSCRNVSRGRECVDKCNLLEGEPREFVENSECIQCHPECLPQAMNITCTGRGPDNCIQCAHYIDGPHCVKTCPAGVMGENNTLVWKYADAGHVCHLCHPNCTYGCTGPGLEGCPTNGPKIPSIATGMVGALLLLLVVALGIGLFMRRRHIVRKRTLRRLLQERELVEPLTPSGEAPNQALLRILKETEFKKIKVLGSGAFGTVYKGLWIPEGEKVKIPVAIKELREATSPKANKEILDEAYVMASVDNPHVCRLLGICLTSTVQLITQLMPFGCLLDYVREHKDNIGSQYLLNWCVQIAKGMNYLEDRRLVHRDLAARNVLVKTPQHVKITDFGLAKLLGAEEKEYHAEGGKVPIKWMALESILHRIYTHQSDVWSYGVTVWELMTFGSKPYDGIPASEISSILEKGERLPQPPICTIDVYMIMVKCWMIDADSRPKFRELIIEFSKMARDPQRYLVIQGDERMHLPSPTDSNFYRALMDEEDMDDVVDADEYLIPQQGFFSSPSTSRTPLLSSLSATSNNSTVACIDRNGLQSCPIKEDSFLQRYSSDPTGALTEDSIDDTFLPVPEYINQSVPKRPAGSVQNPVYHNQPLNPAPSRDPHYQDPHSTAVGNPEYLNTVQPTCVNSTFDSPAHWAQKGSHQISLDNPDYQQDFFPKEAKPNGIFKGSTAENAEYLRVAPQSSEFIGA

Consider `C=CC(=O)Nc1cc2c(Nc3cccc(Cl)c3F)ncnc2cc1C#CC1(C)CN(C)C1` [Compound 11, N-(4-((3-chloro-2-fluorophenyl)amino)-7-((1,3-dimethylazetidin-3-yl)ethynyl)quinazolin-6-yl) acrylamide], for which the pIC50 against EGFR wt is 6.30 to 7.00; at EGFR V3, ≥ 7.30; at HER2 S310F, 6.30 to 7.00; on HER2 YVMA it was 6.30 to 7.00.

On to `C=CC(=O)Nc1cc2c(Nc3cccc(Cl)c3F)ncnc2cc1C#CC12CCC(CC1)N2C` [Compound 10, N-(4-((3-chloro-2-fluorophenyl)amino)-7-((7-methyl-7-azabicyclo[2.2.1]heptan-1-yl)ethynyl)quinazolin-6-yl)acrylamide], for which the pIC50 was 6.30 to 7.00 against EGFR wt, ≥ 7.30 against EGFR V3, 6.30 to 7.00 against HER2 S310F and < 6.30 against HER2 YVMA.

For the compound `C=CC(=O)Nc1cc2c(Nc3cccc(Cl)c3F)ncnc2cc1C#CC1(C(F)(F)F)CCN(C)C1` (centres unmarked) [Compound 62, N-(4-((3-chloro-2-fluorophenyl)amino)-7-((1-methyl-3-(trifluoromethyl)pyrrolidin-3-yl)ethynyl)quinazolin-6-yl)acrylamide], the pIC50 against EGFR wt is < 6.30; at EGFR V3, 6.30 to 7.00; on HER2 S310F, 6.30 to 7.00; on HER2 YVMA it was < 6.30.

As to `C=CC(=O)Nc1cc2c(Nc3cccc(Cl)c3F)ncnc2cc1C#CC12CCN(CC1)CC2` [Compound 17, N-(4-((3-chloro-2-fluorophenyl)amino)-7-(quinuclidin-4-ylethynyl)-quinazolin-6-yl)acrylamide], the pIC50 against EGFR wt was ≥ 7.30; against EGFR V3, ≥ 7.30; against HER2 S310F it was 6.30 to 7.00; against HER2 YVMA, 6.30 to 7.00.

In the case of `C=CC(=O)Nc1cc2c(Nc3cccc(Cl)c3F)ncnc2cc1C#CC1(C)CCN(C)CC1` [Compound 4, N-(4-((3-chloro-2-fluorophenyl)amino)-7-((1,4-dimethylpiperidin-4-yl)ethynyl)quinazolin-6-yl)acrylamide], the pIC50 was 7.00 to 7.30 on EGFR wt, ≥ 7.30 on EGFR V3, 6.30 to 7.00 against HER2 S310F and 6.30 to 7.00 against HER2 YVMA.

For the compound `C=CC(=O)Nc1cc2c(Nc3cccc(Cl)c3F)ncnc2cc1C#CC1(C)CCN(C2COC2)C1` (centres unmarked) [Compound 69, N-(4-((3-chloro-2-fluorophenyl)amino)-7-((3-methyl-1-(oxetan-3-yl)pyrrolidin-3-yl)ethynyl)quinazolin-6-yl)acrylamide], the pIC50 is 6.30 to 7.00 against EGFR wt, ≥ 7.30 at EGFR V3, 6.30 to 7.00 on HER2 S310F and < 6.30 against HER2 YVMA.

`C=CC(=O)Nc1cc2c(Nc3cccc(Cl)c3F)ncnc2cc1C#CC1(C)CCN(CC(F)(F)F)C1` (centres unmarked) [Compound 68, N-(4-((3-chloro-2-fluorophenyl)amino)-7-((3-methyl-1-(2,2,2-trifluoroethyl)-pyrrolidin-3-yl)ethynyl)quinazolin-6-yl)acrylamide]: the pIC50 was < 6.30 against EGFR wt, 6.30 to 7.00 on EGFR V3, < 6.30 at HER2 S310F and < 6.30 against HER2 YVMA.

In the case of `C=CC(=O)Nc1cc2c(Nc3cccc(Cl)c3F)ncnc2cc1C#C[C@]1(C)CCCN(C)C1` [Compound 53, (S)—N-(4-((3-chloro-2-fluorophenyl)amino)-7-((1,3-dimethylpiperidin-3-yl)ethynyl)quinazolin-6-yl)acrylamide], the negative logarithm of the IC50 (pIC50) is 6.30 to 7.00 against EGFR wt, 6.30 to 7.00 at EGFR V3, 6.30 to 7.00 on HER2 S310F and < 6.30 on HER2 YVMA.

On to `COC/C=C/C(=O)Nc1cc2c(Nc3cccc(Cl)c3F)ncnc2cc1C#C[C@@]12C[C@@H]1CN(C)C2` [Compound 21, (E)-N-(4-((3-chloro-2-fluorophenyl)amino)-7-(((1R,5S)-3-methyl-3-azabicyclo[3.1.0]hexan-1-yl)ethynyl)quinazolin-6-yl)-4-methoxybut-2-enamide], for which the pIC50 is ≥ 7.30 on EGFR wt, 6.30 to 7.00 on EGFR V3, 6.30 to 7.00 at HER2 S310F and < 6.30 at HER2 YVMA.

Consider `C=CC(=O)Nc1cc2c(Nc3cccc(Cl)c3F)ncnc2cc1C#C[C@@]12C[C@@H]1CN(C)C2` [Compound 51, N-(4-((3-chloro-2-fluorophenyl)amino)-7-(((1R,5S)-3-methyl-3-azabicyclo[3.1.0]hexan-1-yl)ethynyl)quinazolin-6-yl)acrylamide], for which the pIC50 is 7.00 to 7.30 at EGFR wt, ≥ 7.30 against EGFR V3, ≥ 7.30 against HER2 S310F and 6.30 to 7.00 on HER2 YVMA.

`CC#CC(=O)Nc1cc2c(Nc3cccc(Cl)c3F)ncnc2cc1C#C[C@@H]1[C@H]2CN(C)C[C@@H]12` [Compound 74, N-(4-((3-chloro-2-fluorophenyl)amino)-7-(((1R,5S,6s)-3-methyl-3-azabicyclo[3.1.0]hexan-6-yl)ethynyl)quinazolin-6-yl)but-2-ynamide]: the pIC50 at EGFR wt is 6.30 to 7.00; on EGFR V3, ≥ 7.30; against HER2 S310F, 7.00 to 7.30; against HER2 YVMA it was < 6.30.

Turning to `C=CC(=O)Nc1cc2c(Nc3cc(Cl)ccc3F)ncnc2cc1C#C[C@@H]1[C@H]2CN(C)C[C@@H]12` [Compound 75, N-(4-((5-chloro-2-fluorophenyl)amino)-7-(((1R,5S,6s)-3-methyl-3-azabicyclo[3.1.0]hexan-6-yl)ethynyl)quinazolin-6-yl)acrylamide], the pIC50 on EGFR wt is 6.30 to 7.00; against EGFR V3, ≥ 7.30; at HER2 S310F, 6.30 to 7.00; on HER2 YVMA it was < 6.30.

Turning to `C=C(CO)C(=O)Nc1cc2c(Nc3cccc(Cl)c3F)ncnc2cc1C#C[C@@]12C[C@@H]1CN(C)C2` [Compound 26, N-[4-(3-chloro-2-fluoro-anilino)-7-[2-[(1R,5S)-3-methyl-3-azabicyclo[3.1.0]hexan-1-yl]ethynyl]quinazolin-6-yl]-2-(hydroxymethyl)prop-2-enamide], the pIC50 at EGFR wt is 7.00 to 7.30; at EGFR V3, ≥ 7.30; against HER2 S310F it was 7.00 to 7.30; against HER2 YVMA it was 6.30 to 7.00.

Turning to `C=CC(=O)Nc1cc2c(Nc3ccc(Cl)c(Cl)c3F)ncnc2cc1C#CC1(C)CCOC1` (centres unmarked) [Compound 63, N-(4-((3,4-dichloro-2-fluorophenyl)amino)-7-((3-methyltetrahydrofuran-3-yl)ethynyl)quinazolin-6-yl)acrylamide], the negative logarithm of the IC50 (pIC50) at EGFR wt was 6.30 to 7.00; against EGFR V3, ≥ 7.30; on HER2 S310F it was 6.30 to 7.00; against HER2 YVMA it was < 6.30.

On to `C=CC(=O)Nc1cc2c(Nc3cccc(Cl)c3F)ncnc2cc1C#CC1(C)CN(C)C2(COC2)C1` (centres unmarked) [Compound 47, N-(4-((3-chloro-2-fluorophenyl)amino)-7-((5,7-dimethyl-2-oxa-5-azaspiro[3.4]octan-7-yl)ethynyl)quinazolin-6-yl)acrylamide], for which the negative logarithm of the IC50 (pIC50) was < 6.30 on EGFR wt, 6.30 to 7.00 on EGFR V3, < 6.30 against HER2 S310F and < 6.30 against HER2 YVMA.

For the compound `C=CC(=O)Nc1cc2c(Nc3cccc(Cl)c3F)ncnc2cc1C#CC1(C)CCN(CCF)C1` (centres unmarked) [Compound 56, N-(4-((3-chloro-2-fluorophenyl)amino)-7-((1-(2-fluoroethyl)-3-methylpyrrolidin-3-yl)ethynyl)quinazolin-6-yl)acrylamide], the pIC50 on EGFR wt was 6.30 to 7.00; on EGFR V3, ≥ 7.30; against HER2 S310F it was 6.30 to 7.00; against HER2 YVMA, < 6.30.

As for `CNC(=O)Nc1cc2c(Nc3cccc(Cl)c3F)ncnc2cc1C#CC1(C)CCN(C)C1` (centres unmarked) [Compound 57, 1-(4-((3-chloro-2-fluorophenyl)amino)-7-((1,3-dimethylpyrrolidin-3-yl)ethynyl)quinazolin-6-yl)-3-methylurea], the pIC50 on EGFR wt is ≥ 7.30; on EGFR V3, < 6.30; at HER2 S310F, < 6.30; at HER2 YVMA, < 6.30.
